Reference: patent US6417216B1 (priority 2000, dated 2002)

System: Phytophthora infestans
Format: in vivo
Conditions: neighbouring plot, mancozeb at 1600 g/ha

mancozeb
efficacy, compared with the composition of compounds (I) and (II): about one-half
